The subject of one assay is HT29 colon cancer cells. Description: In vivo subcutaneous tumor model. To be noted: 2 mg/kg, 100 μL injection, after 18 days, HT29 subcutaneous tumors in nude mice. As for the experimental part: Subcutaneous tumor models were established with HT29 colon cancer cells. Nude/nude mice at 8 weeks old were injected with 3×10^6 HT29 cells subcutaneously in the right flank. The tumors were then allowed to grow to a volume of ˜130 mm^3. Once the tumors reached a volume of 130 mm^3 the mice were injected with 100 μL of the desired treatment. For the control group the mice were injected with PBS. For the SK free drug and SK CNA groups the final treatment dose was 7 mg/kg and an injection volume of 100 μL. For SDK free drug and SDK CNA the final treatment dose was 2 mg/kg with an injection volume of 100 μL. Once the mice were treated the tumor volume and body mass were measured for 18 days. The groups were formed with an N=6 mice. The tumor volume was calculated by the formula 0.5(l)×w2.

The subject of the next assay is A549 cells. Description: Cell toxicity assay in A549 cells (resazurin). Format: cell-based, human. As for the experimental part:
The cytotoxic effects of four MTM analogue nanoparticulate formulations were investigated in comparison to free drugs. A549 cells were cultured as specified from ATCC at 37° C., 5% CO2. The cells were seeded on a 96 well plate (5,000 cells/well) and allowed to adhere for 24 hrs. After 24 hrs growth media were replaced with fresh media containing samples at differing concentrations. 1% DMSO (biotechnological grade) was used as a control vehicle to prepare free drug formulations for SK and SDK. Self-assembled and cross-linked micelles were used as nanoparticulate formulations for SK and SDK. The cells were exposed to samples for 72 hrs total (n=8). Cell viability was assessed using a resazurin assay that indicates mitochondrial metabolic activity in live cells. 10 μL of a 1 mM resazurin solution in PBS was added to the vehicle- and drug-treated cells at the end of the treatment period. Cell viability was determined three hours later by reading the fluorescence at 560 nm (Ex)/590 nm (Em). The fluorescence signals were quantified using a Spectramax M5 plate reader (Molecular Devices) equipped with a SoftMaxPro software. Cytotoxicity was determined by calculating the half maximal inhibitory concentration (IC50) of each sample.
On the technique in general: The colour change of resazurin is a common sign of viable cells or microbes.

The test system of another assay is HT29 cells. Kind of assay: Cell toxicity assay in HT29 cells (resazurin). Format: cell-based. The settings on record: 72 hrs exposure. How it is done: The in vitro cytotoxic effects of the MTM loaded CNAs (Crosslinked Nano Assemblies) were investigated in comparison to free drugs. HT29 cells were cultured as specified from ATCC at 37° C., 5% CO2. The cells were seeded on a 96 well plate (5,000 cells/well) and allowed to adhere for 24 hrs. After 24 hrs growth media were replaced with fresh media containing drug and CNA samples at differing concentrations. Free drug formulations for SK and SDK and CNA formulations were prepared in filtered DI water. The cells were exposed to samples for 72 hrs total (n=4). Cell viability was assessed using a resazurin assay that indicates mitochondrial metabolic activity in live cells. 10 μL of a 1 mM resazurin (7-Hydroxy-3H-phenoxazin-3-one 10-oxide) solution in PBS was added to the vehicle- and drug-treated cells at the end of the treatment period. Cell viability was determined three hours later by reading the fluorescence at 560 nm (Ex)/590 nm (Em). The fluorescence signals were quantified using a Spectramax® M5 plate reader (Molecular Devices) equipped with a SoftMaxPro® software. Cytotoxicity was determined by calculating the half maximal inhibitory concentration (IC50) of each sample.

The record followed here is patent US20130101632A1, “NANOPARTICULATE FORMULATIONS OF MITHRAMYCIN OR MITHRAMYCIN ANALOGUES FOR TREATING CANCER” (UNIVERSITY OF KENTUCKY RESEARCH FOUNDATION, priority 2011, published 2013).

Broadly, the IC50 is the concentration needed to halve the response being measured.

As to `CO[C@H](C(=O)C(C)=O)[C@@H]1Cc2cc3cc(OC4C[C@@H](OC5C[C@@H](O)[C@H](O)C(C)O5)[C@H](O)C(C)O4)c(C)c(O)c3c(O)c2C(=O)[C@H]1OC1C[C@@H](OC2C[C@@H](OC3C[C@](C)(O)[C@H](O)C(C)O3)[C@@H](O)C(C)O2)[C@H](O)C(C)O1` (stereo partly shown) [SDK], the “relative tumor regression as compared to the control” value in the assay with HT29 colon cancer cells stood at 48%. Also, the IC50 in the assay on A549 cells (72 hrs exposure, resazurin assay) is 93 ± 35 nM; in the assay with HT29 cells it was 216 ± 4 nM. Moreover, the “Relative efficacy to free drug” value in the assay with A549 cells (relative to free drug = 1.00) turned out to be 1.00.
